# Assay results published in patent publication US20210130316A1, “MORPHINAN DERIVATIVES AND COMPOSITIONS COMPRISING THE SAME FOR TREATING AUTOIMMUNE, IN[…] INFECTION RELATED DISORDERS” (TAIWANJ PHARMACEUTICALS CO., LTD, priority 2017, published 2021).
# Key:
# [1] = biological target: T1, Toll-like receptor 4 (TLR4) (Homo sapiens, UniProt O00206+Q9Y6Y9); assay: NF-κB-inducible SEAP reporter assay of LPS-stimulated TLR4 activity in TLR4-expressing HEK293 cells; assay type: cell-based; settings: for TLR-4 antagonist activity in words (summary of Table 3): 20 μM; for inhibition at 20 µM: compound 20 μM, LPS 10 ng/ml, 16-24 hours incubation, TLR4-expressing HEK293 cells, read-out: TLR-4 inhibition (%) Average
# T1 construct: expressed in transfected cells; host or cells: HEK293
# T1 sequence (O00206 24-839, species assumed): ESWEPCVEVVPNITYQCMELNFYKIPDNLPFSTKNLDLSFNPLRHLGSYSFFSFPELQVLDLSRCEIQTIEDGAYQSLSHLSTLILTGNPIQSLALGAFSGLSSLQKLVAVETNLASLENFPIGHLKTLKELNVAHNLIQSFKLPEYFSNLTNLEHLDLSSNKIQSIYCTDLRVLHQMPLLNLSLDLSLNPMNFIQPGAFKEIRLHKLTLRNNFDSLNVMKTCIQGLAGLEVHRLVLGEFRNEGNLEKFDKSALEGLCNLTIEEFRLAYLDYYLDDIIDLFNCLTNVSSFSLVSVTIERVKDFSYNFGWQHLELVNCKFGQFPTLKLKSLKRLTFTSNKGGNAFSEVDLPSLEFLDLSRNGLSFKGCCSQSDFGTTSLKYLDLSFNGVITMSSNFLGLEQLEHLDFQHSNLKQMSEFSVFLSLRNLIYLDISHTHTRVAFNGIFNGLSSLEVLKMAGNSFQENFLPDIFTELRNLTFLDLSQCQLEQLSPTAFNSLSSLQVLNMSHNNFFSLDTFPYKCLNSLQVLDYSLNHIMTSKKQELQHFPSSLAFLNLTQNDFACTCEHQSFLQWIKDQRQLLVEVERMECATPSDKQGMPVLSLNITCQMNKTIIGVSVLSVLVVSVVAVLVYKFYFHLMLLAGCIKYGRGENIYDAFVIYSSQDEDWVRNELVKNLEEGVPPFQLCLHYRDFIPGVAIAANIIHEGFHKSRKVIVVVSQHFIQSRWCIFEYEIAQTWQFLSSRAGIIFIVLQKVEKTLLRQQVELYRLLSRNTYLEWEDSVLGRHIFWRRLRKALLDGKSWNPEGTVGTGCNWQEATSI
# T1 sequence (Q9Y6Y9 17-160 limits assumed, species assumed): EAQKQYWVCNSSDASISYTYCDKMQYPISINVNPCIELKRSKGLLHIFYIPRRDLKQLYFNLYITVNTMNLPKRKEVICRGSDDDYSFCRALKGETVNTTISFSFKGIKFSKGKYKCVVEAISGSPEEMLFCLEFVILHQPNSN
# Description: Stimulation of the Toll-like receptor 4 (TLR4) was determined by assessing activation of the transcription factor NF-κB in HEK293 cells that were engineered to express TLR4. Assessment of TLR4 stimulation was based on the use of an NF-κB-inducible secreted alkaline phosphatase (SEAP) reporter system in which the SEAP reporter was under the control of a promoter inducible by NF-κB. Thus, the degree of activation of TLR4 can be indirectly quantified spectrophotometrically by measuring the amount of the SEAP reporter that is produced.
# The TLR4-expressing cells were plated in HEK-Blue Detection (Invivogen, San Diego, Calif.) medium in a 96-well plate (25,000-50,000 cells/well). The cells were stimulated with lipopolysaccharides (LPS) alone or in combination with the compound of example 1. Cell culture without LPS and the compound of example 1 was defined as baseline control. To test whether the compound of example 1 could block that activation of the TLR4, the cells were treated with the compound of example 1 (20 μM) and LPS (final conc. 10 ng/ml/well). After a16-24 hours incubation period at 37° C. in a CO2 incubator, The signals of individual samples in 96-well plates were detected at O.D.650 nm with a Molecular Devices SpectraMax i3 Imaging Cytometer. The TLR4 activity was expressed in percentage of LPS alone-stimulated cells minus baseline control.
# HEK293 cells = assay: Cell viability assay (MTT method); assay type: cell-based; settings: compound 20 μM, percentage of viable LPS-stimulated cells
# Description: HEK 293 cells (2.5-5.0×10^4 cells/well) were seeded in 96-well plate for overnight and treated with different compounds for 16-24 hours. Cell growth was determined by MTh-based colorimetric assays. Viability of the test cells treated with vehicle (0.5% DMSO) only was defined as 100% viable. Survival of cells after treatment with DETDs was calculated using the following formula:
# Viable cell number (%)=OD570 (treated cell culture)/OD570 (vehicle control)×100.
# The ell viability assay was performed by the MTT method. Cells were incubated with 45 μl of 5 mg/ml MTT for 1 hour at 37° C., and 150 μl of DMSO was added at the end of culture to dissolve the crystals. The signals of individual samples in 96-well plates were detected at O.D.570 nm with Molecular Device SpectraMax Imaging Cytometer. Cell viability was expressed in percentage of viable LPS-stimulated cells.
Structure (SMILES),TLR-4 antagonist activity in words (summary of Table 3) [1],inhibition at 20 µM [1] [%],Cell viability (%) Average (HEK293 cells) [%]
O=[N+]([O-])c1ccc(N2CC[C@@]34CCCC[C@@H]3[C@@H]2Cc2ccc(O)cc24)cc1 [Compound 3],weak to negligible activity towards TLR-4,0,82.1
Nc1ccc(N2CC[C@@]34CCCC[C@@H]3[C@@H]2Cc2ccc(O)cc24)cc1 [Compound 4],strong antagonists of TLR-4,90.5,92.2
COc1ccc2c(c1)[C@]13CCCC[C@@H]1[C@H](C2)N(c1ccc([N+](=O)[O-])c(N)c1)CC3 [Compound 5],weak to negligible activity towards TLR-4,13.2,110.9
COc1ccc2c(c1)[C@]13CCCC[C@@H]1[C@H](C2)N(c1ccc(N)cc1)CC3 [Compound 6],moderate to mild inhibitory activity toward TLR-4,37.7,83.1
CCOC(=O)Nc1ccc(N2CC[C@@]34CCCC[C@@H]3[C@@H]2Cc2ccc(OC)cc24)cc1 [Compound 7],weak to negligible activity towards TLR-4,0,79.3
COc1ccc2c(c1)[C@]13CCCC[C@@H]1[C@H](C2)N(c1ccc(NC(=O)CCCc2ccccc2)cc1)CC3 [Compound 8],weak to negligible activity towards TLR-4,6,104.7
COc1ccc2c(c1)[C@]13CCCC[C@@H]1[C@H](C2)N(S(=O)(=O)c1ccc([N+](=O)[O-])cc1)CC3 [Compound 9],moderate to mild inhibitory activity toward TLR-4,23.7,104.1
COc1ccc2c(c1)[C@]13CCCC[C@@H]1[C@H](C2)N(S(=O)(=O)c1ccc(N)cc1)CC3 [Compound 10],moderate to mild inhibitory activity toward TLR-4,30,111.6
COc1ccc2c(c1)[C@]13CCCC[C@@H]1[C@H](C2)N(CC(O)COc1ccccc1)CC3 (stereo partly drawn) [Compound 11],remarkable inhibitions on TLR-4,54.5,88.8
COc1ccc2c(c1)[C@]13CCCC[C@@H]1[C@H](C2)N(CC(O)CSc1ccccc1)CC3 (stereo partly drawn) [Compound 12],remarkable inhibitions on TLR-4,59.1,81.3
COc1ccc2c(c1)[C@]13CCCC[C@@H]1[C@H](C2)N(CC(O)CN1CCOCC1)CC3 (stereo partly drawn) [Compound 13],weak to negligible activity towards TLR-4,2.8,101.5
CC(=O)Nc1ccc(S(=O)(=O)N2CC[C@@]34CCCC[C@@H]3[C@@H]2Cc2ccc(O)cc24)cc1 [Compound 15],moderate to mild inhibitory activity toward TLR-4,45.1,104.0
Nc1ccc(S(=O)(=O)N2CC[C@@]34CCCC[C@@H]3[C@@H]2Cc2ccc(O)cc24)cc1 [Compound 16],moderate to mild inhibitory activity toward TLR-4,42.1,75.5
Nc1cc(N2CC[C@@]34CCCC[C@@H]3[C@@H]2Cc2ccc(O)cc24)ccc1[N+](=O)[O-] [Compound 17],remarkable inhibitions on TLR-4,53.1,116.0
Nc1ccc(N2CC[C@@]34CCCC[C@@H]3[C@@H]2Cc2ccc(O)cc24)cc1N [Compound 18],remarkable inhibitions on TLR-4,57.7,143.0
CC(C)N(c1ccc(N2CC[C@@]34CCCC[C@@H]3[C@@H]2Cc2ccc(O)cc24)cc1)C(C)C [Compound 19],remarkable inhibitions on TLR-4,75.3,99.2
CC(C)Nc1ccc(N2CC[C@@]34CCCC[C@@H]3[C@@H]2Cc2ccc(O)cc24)cc1 [Compound 20],strong antagonists of TLR-4,99.8,89.9
Nc1ccc(N2CC[C@@]34CCCC[C@@H]3[C@@H]2Cc2ccc(O)cc24)c(F)c1 [Compound 21],weak to negligible activity towards TLR-4,13.8,97.4
Cc1cc(N2CC[C@@]34CCCC[C@@H]3[C@@H]2Cc2ccc(O)cc24)ccc1N [Compound 22],remarkable inhibitions on TLR-4,64.2,101.7
Nc1ccc(N2CC[C@@]34CCCC[C@@H]3[C@@H]2Cc2ccc(O)cc24)c(C(F)(F)F)c1 [Compound 23],weak to negligible activity towards TLR-4,22.9,96.2
O=[N+]([O-])c1ccc(N2CC[C@@]34CCCC[C@@H]3[C@@H]2Cc2ccc(O)cc24)nc1 [Compound 24],moderate to mild inhibitory activity toward TLR-4,43.5,103.3
Nc1ccc(N2CC[C@@]34CCCC[C@@H]3[C@@H]2Cc2ccc(O)cc24)nc1 [Compound 25],weak to negligible activity towards TLR-4,13.3,100.8
